Results taken from US8431617B2, “Use of resveratrol for the preparation of a medicament useful for the treatment of influenza virus infections” (Sigma-Tau Industrie Farmaceutiche Riunite S.p.A., priority 2002, dated 2013).

Key:
[1] = tested on: influenza virus A/PR8/34, subtype H1N1 (virus PR8); experiment: Replication of influenza virus PR8 in MDCK cells, virus released in supernatant titrated as haemagglutinating units; type: cell-based
[2] = tested on: influenza virus PR8 viral proteins (H0-H1, H2, M, NP, P); experiment: Synthesis of viral proteins in infected MDCK cells by Western blotting; type: cell-based, influenza virus A/PR8/34, subtype H1N1; conditions: 15 and 20 μg/ml
Protocol: Viral proteins were analysed by Western blotting. At different times after viral infection, the cells were lysed using special lysis buffers. Equal quantities of proteins were then loaded onto polyacrylamide gel in SDS. After electrophoresis, the proteins were transferred onto a nitrocellulose membrane and treated with anti-influenza polyclonal antibody. After incubation and suitable washings, the filters were treated with a second antibody conjugated to peroxidase and the viral proteins were highlighted by means of the chemiluminescence technique (ECL), using a peroxidase substrate (luminol) which, on reacting with the enzyme, emits a light and makes an impression on the autoradiography plate. The cells were treated with resveratrol at various concentrations (5, 10, 15 and 20 μg/ml). To allow better imaging of the viral proteins, the electrophoresis run was done using a 10% polyacrylamide gel (FIG. 7A) and gradient gel (FIG. 7B).

[3] = tested on: mRNAs for the viral proteins HA and M; experiment: PCR for messenger RNAs of late viral proteins in infected MDCK cells; type: cell-based, influenza virus A/PR8/34, subtype H1N1
viral proteins NP and M = experiment: Localisation of proteins NP and M in infected MDCK cells by immunofluorescence; type: cell-based, influenza virus A/PR8/34, subtype H1N1; conditions: 20 μg/ml
Protocol: Viral replication was also assessed with analysis of the occurrence of viral antigens on the surface of the infected cell by means of immunofluorescence. Analysis of viral proteins by immunofluorescence was done with a fluorescence microscope using a filter emitting in the green (FITC) (lens 100×). MDCK cells, cultured on cover slides for 24 h were infected and, 18 h after infection, were fixed with methanol-acetone 1:1 at 4° C. for 15 min. Later, the cells were washed twice in PBS and permeabilised with a 0.1% solution of PBS-TRITON for 5 min. Blockade of the aspecific sites was done with 1% milk dissolved in PBS for 30 min at ambient temperature. Later, specific monoclonal antibodies (mouse anti-influenza NP and mouse anti-influenza M) to viral proteins were added, diluted 1:50 in PBS for 30 min at ambient temperature. The primary antibody was detected with a secondary antibody conjugated to fluorescein (anti-mouse FITC, Sigma). […]

MDCK cells [4] = experiment: Assay of intracellular glutathione (GSH) in MDCK cells by HPLC; type: cell-based, dog
Protocol: The glutathione assay has been performed as a result of the formation of S-carboxymethyl-derivatives of free thiols with iodoacetic acid followed by conversion of the NH2 terminal groups to 2,4-dinitrophenyl derivatives after the reaction of 1-fluoro-2,4-dinitrobenzene (Anal. Biochemn., 106, 55-62, 1980).
The MDCK cells were detached by means of the scraping technique. Later, the cells were centrifuged at 1,200 rpm for 5 minutes. The cells were washed twice in PBS and the precipitate, obtained after centrifuging, was resuspended in 200 μl of buffer. The cell lysates, obtained with repeated cycles of freezing and thawing, were deproteinised by means of precipitation in 5% metaphosphoric acid. After centrifuging at 22,300 g, the low-molecular-weight thiols present in the supernatant were derivatised with 10% iodoacetic acid v/v and neutralised with NaHCO3 in powder form. After 1 h of incubation in the dark a solution of 1.5% 1-chloro-2,4-dinitrobenzene v/v was added (1.5 ml/98.5 ml of absolute ethanol). […] The protein concentration was calculated using the Lowry method (Biol. Chem., 193, 265-75, 1951). […] The reducing reaction product is detected by the formation of stained compounds by reaction with the aromatic amino acids of the proteins. […]

MDCK cells [5] = experiment: Apoptosis in MDCK cells by FACS after labelling with propidium iodide; type: cell-based, dog; conditions: for apoptosis: antiviral doses of the drug
Protocol: As regards the analysis of apoptosis. MDCK cells were infected with the virus PR8. After viral adsorption, the cells were treated with resveratrol at various concentrations (5, 10, 15 and 20 μg/ml). Twenty-four hours after infection, the cells were detached using a 0.25% trypsin solution and then centrifuged at 1,200 rpm for 5 min, The precipitate thus obtained was analysed by means of the FACS technique after labelling with propidium iodide.
For the purposes of assessing whether the induction of cell death by apoptosis was involved in the antiviral effect of reservatrol, MDCK cells were infected or not with the virus and treated with the substance at the various concentrations. Cell death by apoptosis was evaluated by FACS after labelling with propidium iodide. […] The infection in itself induced apoptosis in 12% of infected cells. Although the addition of increasing doses caused an increase in the mortality, no significant difference was observed between infected cells and uninfected cells treated with antiviral doses of the drug (35 and 37% apoptosis, respectively).

influenza virus A/PR = experiment: Survival of mice infected intranasally with influenza virus A/PR; type: in vivo, Balb/c AnCrIBR mice; conditions: 1 mg/kg, intraperitoneal, daily for 7 days
Protocol: Four-week-old female inbred Balb/c AnCrIBR mice were used. Resveratrol, dissolved in PBS, was administered to the animals via the intraperitoneal route at various times after infection with the influenza virus. The reservatrol concentrations were chosen so as to obtain a range of doses in the animals' blood similar to the effective range in vitro (10 to 20 μg/ml).
The mice were inoculated intranasally (i.n.) with a suspension containing the influenza virus A/PR at a multiplicity of infection of 2 HAU/mouse, after light anaesthesia with ether. On the basis of previous experimental data, the influenza virus at this multiplicity of infection produces haemorrhagic pneumonia that leads to the death of 80% of the animals by one week after infection. For the purposes of monitoring the infection trend, both virological and immunological parameters were monitored in addition to studying survival curves.
The efficacy of resveratrol was studied in an experimental influenza virus infection model in the mouse. In this model, intranasal inoculation of the virus causes severe haemorrhagic pneumonia which leads to the death of the animals within 7 to 10 days of infection. The experimental design envisages evaluation of the therapeutic efficacy of the study substance, as assessed on the basis of survival of the infected animals. […]

MDCK cells [6] = experiment: Toxicity of resveratrol on confluent monolayers of uninfected MDCK cells (cell count, Trypan Blue viability)
Protocol: The cells were cultured in T-25 vials or in 6- and 24-well Libno plates in RPMI culture medium added with L-glutamine, penicillin-streptomycin and 10% foetal calf serum (FCS) and maintained at 37° C. in a 5% CO2 atmosphere. The confluent cell monolayers were detached with a 0.25% trypsin solution, centrifuged and reseeded in fresh medium. The cell count was done using a haemocytometer and cell viability was determined by means of exclusion with Trypan Blue viability staining (0.02%).
For the purposes of determining the possible degree of toxicity on the MDCK cells, the latter were treated with resveratrol after the confluence of the monolayer, at various concentrations (5, 10, 15, 20 and 40 μg/ml).

3,4,5-trihydroxystilbene [resveratrol]
time of addition after infection at which viral replication was significantly inhibited ([1]; 20 μg/ml, added 0, 3, 6 and 9 h after infection, HAU/ml 24 h after infection): ≤ 3 h | duration of treatment needed for inhibition of replication ([1]; 20 μg/ml, added immediately after infection, removed at 0, 3, 6, 9 and 24 h): at least 9 hours | reduction of viral titre compared to infected and untreated controls ([1]; 20 μg/ml, added post-infection, MDCK cells, 0.2 m.o.i.): 87% | viral replication after 24 h, treatment only during viral adsorption ([1]; 20 μg/ml, for one hour at 37° C. during adsorption, then removed): comparable to the replication obtained in the control cells | viral replication ([1]; 40 μg/ml): viral replication was completely blocked | viral replication, dose dependence ([1]; added post-infection, 1-40 μg/ml, HAU 24 and 48 h after infection): inhibited viral replication in a dose-dependent manner | reversibility of antiviral activity ([1]; on discontinuing the treatment): not reversible on discontinuing the treatment | viral replication after direct incubation of the virus with the substance ([1]; virus incubated with 40 μg/ml for one hour at 37° C., diluted 1:500, then used for infecting cells): no reduction in viral replication was observed | expression of early nucleocapside proteins (NP and P) [2]: inhibited, though to a lesser extent than that of the late proteins | synthesis of late haemoagglutinin (H0-H1, H2) and matrix proteins (M) [2]: almost totally inhibited | release of messenger RNAs for the late viral proteins (HA and M) ([3]; 20 μg/ml, evaluated 8 hours after infection): causes a delay in the release of messenger RNAs | synthesis of the mRNAs for HA and M ([3]; 20 h after infection): not affected by treatment with resveratrol | localisation of protein NP (viral proteins NP and M): the NP is retained in the nucleus | protein M expression (viral proteins NP and M): significantly inhibited | GSH levels in infected cells (MDCK cells [4]; infected MDCK cells, 24 h after infection): did not restore the GSH levels reduced by the infection | intracellular GSH levels compared to untreated cells (MDCK cells [4]; uninfected MDCK cells): produced a reduction in intracellular GSH levels | apoptosis (MDCK cells [5]; infected cells): 35% | cell death by apoptosis (MDCK cells [5]; uninfected cells, 5 μg/ml): 8% | cell death by apoptosis (MDCK cells [5]; uninfected cells, 20 μg/ml): 32% | apoptosis (MDCK cells [5]; uninfected cells): 37% | mortality versus untreated animals (influenza virus A/PR): significantly reduced the mortality | animals that survived the infection (influenza virus A/PR; 2 HAU/mouse i.n.): 60% | toxic effects on uninfected cells (MDCK cells [6]; 20 μg/ml): without any toxic effects on the uninfected cells being detected | toxic effects / cell mortality (MDCK cells [6]; 40 μg/ml): toxic effects were observed with an increase in cell mortality | morphological alterations of the cells (MDCK cells [6]; 10-20 μg/ml): no morphological alterations of the cells were observed | cell number (MDCK cells [6]; 10-20 μg/ml, confluent monolayer, uninfected): a slight reduction in cell number was observed
